Experimental data reported in article PMC10385824, “Antiproliferative and Tubulin-Destabilising Effects of 3-(Prop-1-en-2-yl)azetidin-2-Ones and Related Compounds in MCF-7 and MDA-MB-231 Breast Cancer Cells” (Pharmaceuticals, 2023).
Where two headings read alike, the source gives them in different places. Values belong to the compound of their own block, whether it stands above or below them.

Legend:
[1] = system: MCF-7 human breast cancer cells; settings: for antiproliferative activity in words / IC50: MCF-7; for IC50: read-out: Antiproliferative Activity IC50, 72 h, eight concentrations (0.001–50 mM [sic]), mean ± SEM, Table 5
[2] = system: MCF-7 human breast cancer cells; assay: cells
[3] = system: MDA-MB-231 human breast cancer cells; assay: Alamar Blue cell viability (antiproliferative) assay; format: cell-based; settings: 72 h, eight concentrations 0.001-50 μM, mean ± SEM, read-out: Antiproliferative Activity IC50
[4] = HPLC stability under degradation conditions (acid, alkali, heat, light, oxidation); settings: for remaining at 4 h / remaining at 312 h, 0.5 mg/mL / remaining at 5 h, 0.5 mg/mL: % Remaining; for remaining at 6 h: 30% H2O2 added to stock solution, Hydrogen peroxide (30 % H2O2, 0.2 mL), 20 °C; for remaining at 312 h, 0.5 mg/mL: solution in acetonitrile:water 80:20, daylight, Daylight (acetonitrile (80%):water (20%) 13 days); for remaining at 5 h, 0.5 mg/mL: stock solution in acetonitrile:water 80:20, heated, 80 °C (heating block, 5 h)
[5] = HPLC stability study in phosphate buffers; format: physicochemical; settings: for compound remaining: all pH values (4, 7.4, 9), after 11 days; for stability in words: over the pH range studied; for remaining at 264 h, 14.6 µg/mL: phosphate buffer, study over 264 h
[6] = system: NCI 60 human cancer cell line panel; assay: NCI 60 cell line screen (SRB), panel values
[7] = HPLC stability study in plasma; format: in vitro ADME, human; settings: human, buffered plasma (plasma:buffer 1:9); Plasma; study over 264 h
Description: Analytical high-performance liquid chromatography (HPLC) stability studies were performed as follows using Symmetry® column (C18, 5 µm, 4.6 × 150 mm), Waters 2487 Dual Wavelength Absorbance detector, Waters 1525 binary HPLC pump and Waters 717 plus Autosampler (Waters Corporation, Milford, MA, USA) with detection at 254 nm as previously described. Samples were analysed using mobile phase acetonitrile (80%): water (20%), flow rate (1 mL/min) over 10 min. […] First, 30 µL of compound stock solution was diluted with appropriate buffer (1 mL); sample was shaken and injected immediately. Samples were withdrawn and analysed at the following time points: t = 0 min, 5 min, 30 min, 60 min, 90 min, 120 min, 24 h and 48 h. (ii) Thermal stability: Compound stock solution (1 mL) was placed in a glass vial on a heating block for 4 h at 60 °C. The sample was then cooled, diluted (acetonitrile) and analysed. (ii) Oxidising conditions: H2O2 (3%, 0.2 mL) was added to compound stock solution (0.8 mL). The vial was vortexed and retained at 20 °C, and the sample was analysed at 60, 120 180 and 240 min. (iv) Acidic conditions: HCl (0.1 M, 0.2 mL) was added to stock solutions (0.8 mL). The vial was mixed by vortex and retained at 20 °C. A sample was neutralised with NaOH (0.1 M, 0.2 mL) at 60, 120, 180 and 240 min, followed by HPLC analysis. (v) Alkaline conditions: NaOH (0.1 M, 0.2 mL) was added to stock solution (0.8 mL) of the compound in a vial. The vial was mixed by vortex and retained at 20 °C. A sample was neutralised with HCl (0.1 M, 0.2 mL) at 60, 120, 180 and 240 min followed by HPLC analysis. (vi) Photostability study: Compounds (stock solution, 1 mL) were placed in a vial, exposed to UV light for 4 h and then analysed by HPLC as above. Stability studies in plasma: Approval for this study was obtained from the School of Pharmacy and Pharmaceutical Sciences Trinity College Dublin Research Ethics Committee (2020–06-01-MS). Following informed consent, blood was withdrawn from healthy volunteers, and plasma was obtained by centrifugation and kept at −20 °C until further use. […] A sample (250 µL) was then added to the Eppendorf tube containing ZnSO4.7H2O solution (500 µL) (2% w/v ZnSO4 solution in acetonitrile:water, 1:1). The samples were centrifuged (10,000 rpm, 3 min), filtered (0.2 micron filter) and analysed by HPLC as above. Further samples were taken at one-hour intervals.

[8] = system: purified bovine brain tubulin; assay: Tubulin polymerization assay (light scattering, BK006 kit); format: biochemical; settings: compound at 10 μM
Description: Tubulin polymerization was monitored using the BK006 kit obtained from Cytoskeleton Inc. (Denver, CO, USA). The values reported represent the average values determined from two independent assays. Purified bovine brain tubulin (>99%, 3 mg/mL) in buffer containing PIPES (80 mM, pH 6.9), EGTA (0.5 mM), MgCl2 (2 mM), GTP (1 mM) and glycerol (10%) was incubated at 37 °C in vehicle (1% DMSO or EtOH (v/v) in dH2O) or with compounds 9h, 9q, 9s, 10h, 10p, 10r, 11h, 11p, 11r, 17f (all at 10 µM concentration); CA-4 (10 μM) was used as control. In this assay, light scattering is related to the concentration of polymerised microtubules produced. Tubulin assembly was monitored turbidimetrically at 340 nm at 37 °C in a Spectramax 340 PC spectrophotometer (Molecular Devices, Sunnyvale, CA, USA).

[9] = system: MDA-MB-231/ATCC; assay: NCI-60 SRB screen, breast cancer; format: cell-based, human; settings: Homo sapiens; MDA-MB-231; obtained from NCI; five concentrations 0.01–100 μM; 48 h; read-out: Antiproliferative Activity IC50
[10] = MCF7, 72 h, read-out: Antiproliferative Activity IC50, MCF-7, 72 h, eight concentrations 1–50 μM, mean ± SEM, Table 2
[11] = 1M HCl added to stock solution, 1M HCl (0.1 mL, 20 °C, 4h)
[12] = 1M HCl added to stock solution, 1M HCl (0.2 mL, 50 °C, 4h)
[13] = 1M NaOH added to stock solution, 1M NaOH (0.1 mL, 20 °C, 4h)
[14] = MCF7, read-out: Antiproliferative Activity IC50, MCF-7, eight concentrations 0.001–50 μM, mean ± SEM, Table 3

melting point: 137 to 138 °C
IC50 [2, 10]: 630 ± 70 nM
Compound: C=C(C)C1C(=O)N(c2cc(OC)c(OC)c(OC)c2)C1c1ccc(Cl)cc1 (stereo not drawn) [9b, 4-(4-Chlorophenyl)-1-(3,4,5-trimethoxyphenyl)-3-(prop-1-en-2-yl)azetidine-2-one]
antiproliferative activity in words [1]: sub-micromolar

melting point: 130 to 131 °C
Compound: C=C(C)C1C(=O)N(c2cc(OC)c(OC)c(OC)c2)C1c1ccc(Br)cc1 (stereo not drawn) [9c, 4-(4-Bromophenyl)-1-(3,4,5-trimethoxyphenyl)-3-(prop-1-en-2-yl)azetidine-2-one]
antiproliferative activity in words [1]: sub-micromolar

IC50 [2, 10]: 5950 ± 920 nM
Compound: C=C(C)C1C(=O)N(c2cc(OC)c(OC)c(OC)c2)C1c1ccc(N(C)C)cc1 (stereo not drawn) [9e, 4-(4-Dimethylaminophenyl)-1-(3,4,5-trimethoxyphenyl)-3-(prop-1-en-2-yl)azetidine-2-one]
antiproliferative activity in words [1]: sub-micromolar

IC50 [3]: 246 ± 17 nM
melting point: 102 to 104 °C
Compound: C=C(C)C1C(=O)N(c2cc(OC)c(OC)c(OC)c2)C1c1ccc(C)cc1 (stereo not drawn) [9g, 4-p-Tolyl-1-(3,4,5-trimethoxyphenyl)-3-(prop-1-en-2-yl)azetidine-2-one]
antiproliferative activity in words [1]: sub-micromolar

IC50 [3]: 529 ± 80 nM
melting point: 123 to 124 °C
IC50 [2, 10]: 78100 ± 5470 nM
IC50 ([2]; MCF7, MCF-7): 139 nM
Compound: C=C(C)C1C(=O)N(c2cc(OC)c(OC)c(OC)c2)C1c1ccc2ccccc2c1 (stereo not drawn) [9n, 4-Naphthalen-2-yl-1-(3,4,5-trimethoxyphenyl)-3-(prop-1-en-2-yl)azetidin-2-one]
fold more potent than the 1-naphthyl compound 9m ([1]; MCF-7 IC50 ratio): 58 fold

melting point: 99 to 100 °C
IC50 [2, 10]: 272000 ± 26400 nM
Compound: C=C(C)C1C(=O)N(c2cc(OC)c(OC)c(OC)c2)C1c1ccc(SC)cc1 (stereo not drawn) [9o, 4-(4-(Methylthio)phenyl)-3-(prop-1-en-2-yl)-1-(3,4,5-trimethoxyphenyl)azetidin-2-one]
antiproliferative activity in words [1]: sub-micromolar

melting point: 113 to 115 °C
IC50 [2, 10]: 131 ± 40 nM
Compound: C=C(C)C1C(=O)N(c2ccc(SC)cc2)C1c1cc(OC)c(OC)c(OC)c1 (stereo not drawn) [9t, 1-(4-(Methylthio)phenyl)-3-(prop-1-en-2-yl)-4-(3,4,5-trimethoxyphenyl)azetidin-2-one]
antiproliferative activity in words [1]: minimal

melting point: 106 to 108 °C
Compound: C=C(C)C1C(=O)N(c2ccc(OCC)cc2)C1c1cc(OC)c(OC)c(OC)c1 (stereo not drawn) [9u, 1-(4-Ethoxyphenyl)-3-(prop-1-en-2-yl)-4-(3,4,5-trimethoxyphenyl)azetidin-2-one]
antiproliferative activity in words [1]: minimal

melting point: 128 to 130 °C
IC50 [2, 10]: 1160 ± 120 nM
Compound: C=C(C)C1C(=O)N(c2ccc(OC)cc2)C1c1cc(OC)c(OC)c(OC)c1 (stereo not drawn) [9v, 1-(4-Methoxyphenyl)-3-(prop-1-en-2-yl)-4-(3,4,5-trimethoxyphenyl)azetidin-2-one]
antiproliferative activity in words [1]: minimal

remaining at 4 h [4, 11]: 97.5%
remaining at 4 h [4, 12]: 99.6%
remaining at 4 h [4, 13]: 96%
remaining at 6 h [4]: 100%
remaining at 312 h, 0.5 mg/mL [4]: 100%
remaining at 5 h, 0.5 mg/mL [4]: 100%
compound remaining [5]: 24–41%
stability in words [5]: poor stability
remaining at 264 h, 14.6 µg/mL ([5]; pH 4.0): 28%
remaining at 264 h, 14.6 µg/mL ([5]; pH 7.4): 41%
remaining at 264 h, 14.6 µg/mL ([5]; pH 9.0): 24%
remaining at 264 h, 41.3 µg/mL [7]: 100%
IC50 [2, 14]: 35 ± 5 nM
Compound: C=CCC1C(=O)N(c2cc(OC)c(OC)c(OC)c2)C1c1ccc(OC)cc1 (stereo not drawn) [10h, 3-Allyl-4-(4-methoxyphenyl)-1-(3,4,5-trimethoxyphenyl)azetidin-2-one]
GI50 ([6]; Homo sapiens, 60 cell, read-out: Mean GI50, mean over all NCI 60 cell lines): < 91.2 nM
CC50 ([6]; Homo sapiens, 60 cell, read-out: Mean LC50): 81300 nM
IC (TGI (total growth inhibition)) ([6]; Homo sapiens, 60 cell, read-out: Mean TGI): 17400 nM
GI50 ([6]; read-out: Mean GI50, mean over all NCI 60 cell lines): 75.9 nM
Vmax ([8]; 37 °C, 340 nm): 0.0056 mOD/min
Fold Reduction in Vmax ([8]; relative to vehicle): 2.5
IC50 [9]: 120 nM

IC50 [3]: 656 ± 130 nM
melting point: 139 to 140 °C
IC50 [2, 14]: 210 ± 26 nM
Compound: C=CCC1C(=O)N(c2cc(OC)c(OC)c(OC)c2)C1c1cccc2ccccc12 (stereo not drawn) [10m, 3-Allyl-4-naphthalen-1-yl-1-(3,4,5-trimethoxyphenyl)azetidin-2-one]

remaining at 4 h [4, 11]: 99.2%
remaining at 4 h [4, 12]: 98.7%
remaining at 4 h [4, 13]: 97.8%
remaining at 4 h ([4]; 1M NaOH added to stock solution, 1M NaOH (0.2 mL, 50 °C, 4h)): 97.8%
remaining at 6 h [4]: 92%
remaining at 312 h, 0.5 mg/mL [4]: 100%
remaining at 5 h, 0.5 mg/mL [4]: 100%
compound remaining [5]: 22–26%
stability in words [5]: poor stability
remaining at 264 h, 14.6 µg/mL ([5]; pH 4.0): 26%
remaining at 264 h, 14.6 µg/mL ([5]; pH 7.4): 25%
remaining at 264 h, 14.6 µg/mL ([5]; pH 9.0): 22%
melting point: 108 to 110 °C
remaining at 264 h, 41.3 µg/mL [7]: 90%
IC50 [2, 14]: 619 ± 70 nM
Compound: C=CCC1C(=O)N(c2cc(OC)c(OC)c(OC)c2)C1c1ccc(OC)c([N+](=O)[O-])c1 (stereo not drawn) [10q, 3-Allyl-4-(4-methoxy-3-nitrophenyl)-1-(3,4,5-trimethoxyphenyl)azetidin-2-one]

IC50 [3]: 160 ± 14 nM
melting point: 88 to 89 °C
IC50 ([2]; MCF7, read-out: Antiproliferative Activity IC50, MCF-7, eight concentrations 0.001–50 μM, mean ± SEM, Table 4): 200 ± 40 nM
Compound: C=CC=CC1C(=O)N(c2cc(OC)c(OC)c(OC)c2)C1c1ccc(C)cc1 (stereo not drawn) [11g, 3-(Buta-1,3-dienyl)-4-p-tolyl-1-(3,4,5-trimethoxyphenyl)azetidin-2-one]

IC50 [1]: 142000 ± 20300 nM
Compound: COC(=O)C1=C(C(=O)OC)C(C2C(=O)N(c3cc(OC)c(OC)c(OC)c3)C2c2cccc3ccccc23)CC=C1 (stereo not drawn) [22a, Dimethyl-6-(1-(3,4,5-trimethoxyphenyl)-2-(naphthalen-1-yl)-4-oxoazetidin-3-yl)cyclohexa-1,3-diene-1,2-dicarboxylate]

IC50 [1]: 9690 ± 1020 nM
Compound: COC(=O)C1=C(C(=O)OC)C(C2C(=O)N(c3cc(OC)c(OC)c(OC)c3)C2c2cccc3ccccc23)CC=C1 (stereo not drawn) [22b, Dimethyl-6-(1-(3,4,5-trimethoxyphenyl)-2-(naphthalen-1-yl)-4-oxoazetidin-3-yl)cyclohexa-1,3-diene-1,2-dicarboxylate]
